Measurements published in US6759409B2, “Inhibitors of papilloma virus” (Boehringer Ingelheim (Canada) Ltd., priority 2000, dated 2004).

Target: T1, HPV-11 E1-E2-DNA origin of replication complex (Human papillomavirus 11, UniProt P04015)
T1 construct: approximately 100-200 ng of purified E1
Assay: E2-dependent E1 DNA binding assay (E1-E2 DNA assay)
Experimental: This particular assay determines the ability of a test compound to inhibit the activity (IC50) of HPV-11 DNA replication. More specifically, in the assay described herein, the inhibitory activity of the test compound is evaluated based on its ability to interfere with the E1-E2-DNA origin of replication interaction, thereby inhibiting initiation of viral DNA replication.
This assay was modeled on a similar assay for SV40 T Antigen described by McKay (J. Mol. Biol., 1981,145:471). A 400 bp radiolabeled DNA probe, containing the HPV-11 origin of replication (Chiang et al., 1992, Proc. Natl. Acad. Sci. USA 89:5799) was produced by pcr, using plasmid pBluescript™ SK encoding the origin (nucleotides 7886-61 of the HPV-11 genome in unique BAMH1 site) as template and primers flanking the origin. Radiolabel was incorporated as [^33P]dCTP. Binding assay buffer consisted of: 20 mM Tris pH 7.6, 100 mM NaCl, 1 mM DTT, 1 mM EDTA.
Other reagents used were protein A-SPA beads (type II, Amersham) and K72 rabbit polyclonal antiserum, raised against a peptide corresponding to the C-terminal 14 amino acids of HPV-11 E1. Following the protocol from Amersham, one bottle of beads was mixed with 25 mL of binding assay buffer. For the assay, a saturating amount of K72 antiserum was added to the beads and the mixture was incubated for 1 h, washed with one volume of binding assay buffer, and then resuspended in the same volume of fresh binding assay buffer. Binding reactions contained 8 ng of E2, approximately 100-200 ng of purified E1, and 0.4 ng of radiolabeled probe in a total of 80 μL of binding assay buffer. After 1 h at room temperature, 25 μL of K72 antibody-SPA bead suspension was added to with the binding reaction and mixed. After an additional hour of incubation at room temperature, the reactions were centrifuged briefly to pellet the beads and the extent of complex formation was determined by scintillation counting on a Packard TopCount™. Typically, the signal for reactions containing E1 and E2 was 20-30 fold higher than the background observed when either E1, E2, or both was omitted.

[1] = Table 1A, enantiomerically pure cis/cis isomer (form 1)
[2] = Table 1, racemic cis/cis isomer (form 1)

T1 sequence (P04015 whole entry, one chain of several): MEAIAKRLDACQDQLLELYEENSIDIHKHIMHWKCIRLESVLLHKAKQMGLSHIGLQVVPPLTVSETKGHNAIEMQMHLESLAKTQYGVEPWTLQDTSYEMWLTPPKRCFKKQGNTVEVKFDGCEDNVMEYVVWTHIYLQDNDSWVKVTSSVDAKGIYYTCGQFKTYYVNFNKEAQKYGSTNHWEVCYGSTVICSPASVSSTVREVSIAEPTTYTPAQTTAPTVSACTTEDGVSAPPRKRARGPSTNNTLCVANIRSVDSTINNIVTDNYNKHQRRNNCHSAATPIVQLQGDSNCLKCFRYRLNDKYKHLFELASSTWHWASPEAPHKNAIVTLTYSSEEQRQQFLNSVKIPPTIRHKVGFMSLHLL

Row | IC50 [2] [µM] | Structure (SMILES) | further results
1 |  | Cc1ccc2c(c1)C(=O)C1(OC(c3ccc(Cl)c(Cl)c3)C(C(=O)Nc3ccc(-c4csnn4)cc3)C1C(=O)O)C2=O (single isomer, unassigned) [A1008] | IC50 [1]: < 0.5 µM
2 | 5 to 50 | CC(=O)c1ccc(NC(=O)C2C(c3ccc(Cl)c(Cl)c3)OC3(C(=O)c4ccc5ccccc5c4C3=O)C2C(=O)O)cc1 (stereo not shown) [compound 1091] | 
3 | 5 to 50 | CC(=O)c1ccc(NC(=O)C2C(c3ccc(Cl)c(Cl)c3)OC3(C(=O)c4cc5ccccc5cc4C3=O)C2C(=O)O)cc1 (stereo not shown) [compound 1090] | 
4 | 5 to 50 | CC(=O)c1ccc(NC(=O)C2C(c3ccc(Cl)c(Cl)c3)OC3(C(=O)c4ccc5ccccc5c4C3=O)C2C(=O)O)cc1 (stereo not shown) [compound 1095] | 
5 |  | CC(=O)c1ccc(NC(=O)C2C(/C=C/c3ccccc3)OC3(C(=O)c4ccccc4C3=O)C2C(=O)O)cc1 (stereo not shown) [compound 4005] | IC50 (Table 4, racemic cis/cis isomer (form 1)): 5 to 50 µM
6 |  | Cc1ccc2c(c1)C(=O)C1(OC(c3ccc(Cl)c(Cl)c3)C(C(=O)Nc3ccc(-c4csnn4)cc3)C1C(=O)O)C2=O (single isomer, unassigned) [A1007] | IC50 [1]: 0.5 to 5 µM

Row | Structure (SMILES) | IC50 [2] [µM] | further results
7 | CCCCNC(=O)C1C(c2ccc(Cl)c(Cl)c2)OC2(C(=O)c3ccccc3C2=O)C1C(=O)O (stereo not shown) [compound 1050] | 0.5 to 5 | 
